In paper PMC11383987 (bioRxiv, 2024):

Biological target: T1, Arabidopsis thaliana PIN8 (Arabidopsis thaliana, UniProt Q9LFP6)
T1 sequence (Q9LFP6 1-367): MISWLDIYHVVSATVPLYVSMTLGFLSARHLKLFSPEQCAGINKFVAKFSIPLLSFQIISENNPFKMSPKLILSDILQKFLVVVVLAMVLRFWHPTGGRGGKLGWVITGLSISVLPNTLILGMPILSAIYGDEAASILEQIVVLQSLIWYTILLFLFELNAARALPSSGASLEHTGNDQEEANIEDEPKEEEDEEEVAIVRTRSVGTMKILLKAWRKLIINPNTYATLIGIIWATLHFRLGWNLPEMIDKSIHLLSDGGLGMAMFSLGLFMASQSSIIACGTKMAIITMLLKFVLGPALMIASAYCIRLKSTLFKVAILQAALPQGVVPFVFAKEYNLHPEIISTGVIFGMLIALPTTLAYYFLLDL
Experiment: SSM electrophysiology peak current response, wild-type PIN8 proteoliposomes
Type: biochemical

O=C(O)c1ccccc1C(=O)Nc1cccc2ccccc12 [NPA, 1-N-naphthylphthalamic acid]
effect of NPA on current response to 2,4-D (100 μM 2,4D in absence or presence of 20 µM NPA): inhibited
peak width of SSM current response at various lipid-to-protein ratios (LPR) (LPR10 vs LPR50, variation is consistent with transport): does not change
